In patent US7148352B2, “Method of inhibiting neurotrophin-receptor binding” (Queen's University at Kingston, priority 1999, dated 2006):
Several values for one entry are separate records, joined by “and”; a condition that tells them apart may be missing. Identical values can stand only once.

Each compound was assayed on p75^NTR (PC12^nnr5 cells, expressing p75^NTR only) (assay: 125I-NGF receptor binding to PC12^nnr5 cells in the presence of competitor). Settings: compound 50 μM; 125I-NGF 1 nM; 2 h at 4° C.; average of three values.
Set-up: species or system rat
Experimental: (§1) The radio-iodination and receptor binding of NGF (Sutter et al., 1979) was performed with modifications (Ross et al., 1997) as follows: Evaluation of the ability of NCP compounds to inhibit TrkA and p75^NTR binding was determined by the binding of ^125I-NGF to PC12 cells (rat pheochromocytoma cells expressing TrkA and p75^NTR; obtained from ATCC) and PC12^nnr5 (rat pheochromocytoma cells expressing p75^NTR only; obtained from Dr. L. Greene, Columbia University, NY). The p75^NTR is in a low affinity state and a high affinity state, respectively, in these cell types (Ross et al., 1998). PC12 and PC12^nnr5 cells were grown in RPMI (Sigma) with 10% heat inactivated donor horse serum and 5% fetal calf serum. Cells were harvested by replacing the medium with calcium, magnesium-free balanced salt solution (Gey's solution) and incubating at 37° C. for 15 minutes. Cells were pelleted by centrifugation and suspended in HKR buffer (10 mM Hepes [pH 7.35] containing 125 mM NaCl, 4.8 mM KCl, 1.3 mM CaCl2, 1.2 mM MgSO4, 1.2 mM KH2PO4, 1 g/L glucose and 1 g/L BSA) at a cell concentration of 2×10^6/mL and kept at 4° C. Triplicate tubes were set up for total binding, non-specific binding and binding in the presence of candidate competitor molecule (i.e., a tube for each data point). Each tube contained ^125I-NGF (at 1 nM), 400,000 cells (for a final cell concentration of 10^6/mL) and NGF (50 nM, to define non-specific binding), as required. The tubes were incubated for 2 h at 4° C. and specific binding evaluated by measuring specifically bound DPM (Ross et al., 1997). Data were analysed and the results expressed as receptor binding observed in the presence of competitor (e.g. NCP compounds) as a percentage of receptor binding in the absence of a competitor.

Row | SMILES | nnr5 % of Max, Avg
1 | O=C(O)c1ccc(CN2C(=O)c3ccc(C(=O)O)cc3C2=O)cc1 [Compound 108, 4-carboxy-N-(p-carboxyphenylmethyl)phthalimide] | = 93 % of Max
2 | O=C(O)CCCCCN1C(=O)c2ccc(C(=O)O)cc2C1=O [Compound 104, 4-carboxy-N-(5-carboxypentyl)phthalimide] | = 37 % of Max
3 | O=C(O)c1ccc(CN2C(=O)c3cccc4cc([N+](=O)[O-])cc(c34)C2=O)cc1 [Compound 208, 3-nitro-N-(p-carboxyphenylmethyl)-1,8-naphthalimide] | = 83 % of Max
4 | Nc1ccc2c(c1)C(=O)N(c1cccc(C(=O)O)c1)C2=O [Compound 166, 4-amino-N-(m-carboxyphenyl)phthalimide] | = 58 % of Max
5 | O=C(O)CCCN1C(=O)c2ccc([N+](=O)[O-])cc2C1=O [Compound 142, 4-nitro-N-(3-carboxypropyl)phthalimide] | = 51 % of Max
6 | O=C(O)CCN1C(=O)c2ccc([N+](=O)[O-])cc2C1=O [Compound 141, 4-nitro-N-(2-carboxyethyl)phthalimide] | = 96 % of Max
7 | O=C(O)c1ccc(N2C(=O)c3cccc([N+](=O)[O-])c3C2=O)cc1 [Compound 125, 3-nitro-N-(p-carboxyphenyl)phthalimide] | = 49 % of Max
8 | O=C(O)c1ccc(N2C(=O)c3cccc4c([N+](=O)[O-])ccc(c34)C2=O)cc1 [Compound 225, 4-nitro-N-(p-carboxyphenyl)-1,8-naphthalimide] | = 56 % of Max
9 | O=C(O)c1ccccc1N1C(=O)c2cccc([N+](=O)[O-])c2C1=O [Compound 127, 3-nitro-N-(o-carboxyphenyl)phthalimide] | = 112 % of Max
10 | O=C(O)CN1C(=O)c2cccc([N+](=O)[O-])c2C1=O [Compound 120, 3-nitro-N-(1-carboxymethyl)phthalimide] | = 183 % of Max
11 | O=C(O)c1ccccc1N1C(=O)c2cccc3cc([N+](=O)[O-])cc(c23)C1=O [Compound 207, 3-nitro-N-(o-carboxyphenyl)-1,8-naphthalimide] | = 58 % of Max

Same assay, conditions: compound 50 μM; 125I-NGF 1 nM; 2 h at 4° C.; receptor binding as percentage of binding in absence of competitor

Row | SMILES | nnr5 % of Max (individual determinations)
12 | O=C(O)c1ccc(CN2C(=O)c3ccc(C(=O)O)cc3C2=O)cc1 [Compound 108, 4-carboxy-N-(p-carboxyphenylmethyl)phthalimide] | 135 % of Max and 77 % of Max and 66 % of Max
13 | O=C(O)CCCCCN1C(=O)c2ccc(C(=O)O)cc2C1=O [Compound 104, 4-carboxy-N-(5-carboxypentyl)phthalimide] | 30 % of Max and 65 % of Max and 17 % of Max
14 | O=C(O)c1ccc(CN2C(=O)c3cccc4cc([N+](=O)[O-])cc(c34)C2=O)cc1 [Compound 208, 3-nitro-N-(p-carboxyphenylmethyl)-1,8-naphthalimide] | 103 % of Max and 87 % of Max and 58 % of Max
15 | Nc1ccc2c(c1)C(=O)N(c1cccc(C(=O)O)c1)C2=O [Compound 166, 4-amino-N-(m-carboxyphenyl)phthalimide] | 55 % of Max and 64 % of Max and 56 % of Max
16 | O=C(O)CCCN1C(=O)c2ccc([N+](=O)[O-])cc2C1=O [Compound 142, 4-nitro-N-(3-carboxypropyl)phthalimide] | 52 % of Max and 51 % of Max (2×)
17 | O=C(O)CCN1C(=O)c2ccc([N+](=O)[O-])cc2C1=O [Compound 141, 4-nitro-N-(2-carboxyethyl)phthalimide] | 98 % of Max and 114 % of Max and 77 % of Max
18 | O=C(O)c1ccc(N2C(=O)c3cccc([N+](=O)[O-])c3C2=O)cc1 [Compound 125, 3-nitro-N-(p-carboxyphenyl)phthalimide] | 47 % of Max (2×) and 54 % of Max
19 | O=C(O)c1ccc(N2C(=O)c3cccc4c([N+](=O)[O-])ccc(c34)C2=O)cc1 [Compound 225, 4-nitro-N-(p-carboxyphenyl)-1,8-naphthalimide] | 49 % of Max and 50 % of Max and 68 % of Max
20 | O=C(O)c1ccccc1N1C(=O)c2cccc([N+](=O)[O-])c2C1=O [Compound 127, 3-nitro-N-(o-carboxyphenyl)phthalimide] | 136 % of Max and 129 % of Max and 71 % of Max
21 | O=C(O)CN1C(=O)c2cccc([N+](=O)[O-])c2C1=O [Compound 120, 3-nitro-N-(1-carboxymethyl)phthalimide] | 218 % of Max and 200 % of Max and 130 % of Max
22 | O=C(O)c1ccccc1N1C(=O)c2cccc3cc([N+](=O)[O-])cc(c23)C1=O [Compound 207, 3-nitro-N-(o-carboxyphenyl)-1,8-naphthalimide] | 64 % of Max and 52 % of Max and 59 % of Max

What follows are compounds tested against T1, TrkA and p75^NTR (PC12 cells) (Mus musculus, UniProt P01139) (assay: 125I-NGF receptor binding to PC12 cells in the presence of competitor). Settings: compound 50 μM; 125I-NGF 1 nM; 2 h at 4° C.; average of three values.
T1 construct: PC12 cells (rat pheochromocytoma cells expressing TrkA and p75^NTR; obtained from ATCC); host or cells: PC12 rat pheochromocytoma cells (intact, in suspension)
T1 sequence (P01139 122-241): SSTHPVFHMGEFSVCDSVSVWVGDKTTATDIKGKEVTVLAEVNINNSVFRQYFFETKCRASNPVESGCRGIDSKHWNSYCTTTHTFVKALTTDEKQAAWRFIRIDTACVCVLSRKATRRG
Set-up: species or system rat
Experimental: as §1

Row | SMILES | PC12 % of Max, Avg
23 | O=C(O)c1ccc(CN2C(=O)c3ccc(C(=O)O)cc3C2=O)cc1 [Compound 108, 4-carboxy-N-(p-carboxyphenylmethyl)phthalimide] | = 73 % of Max
24 | O=C(O)CCCCCN1C(=O)c2ccc(C(=O)O)cc2C1=O [Compound 104, 4-carboxy-N-(5-carboxypentyl)phthalimide] | = 56 % of Max
25 | O=C(O)c1ccc(CN2C(=O)c3cccc4cc([N+](=O)[O-])cc(c34)C2=O)cc1 [Compound 208, 3-nitro-N-(p-carboxyphenylmethyl)-1,8-naphthalimide] | = 49 % of Max
26 | Nc1ccc2c(c1)C(=O)N(c1cccc(C(=O)O)c1)C2=O [Compound 166, 4-amino-N-(m-carboxyphenyl)phthalimide] | = 57 % of Max
27 | O=C(O)CCCN1C(=O)c2ccc([N+](=O)[O-])cc2C1=O [Compound 142, 4-nitro-N-(3-carboxypropyl)phthalimide] | = 66 % of Max
28 | O=C(O)CCN1C(=O)c2ccc([N+](=O)[O-])cc2C1=O [Compound 141, 4-nitro-N-(2-carboxyethyl)phthalimide] | = 90 % of Max
29 | O=C(O)c1ccc(N2C(=O)c3cccc([N+](=O)[O-])c3C2=O)cc1 [Compound 125, 3-nitro-N-(p-carboxyphenyl)phthalimide] | = 90 % of Max
30 | O=C(O)c1ccc(N2C(=O)c3cccc4c([N+](=O)[O-])ccc(c34)C2=O)cc1 [Compound 225, 4-nitro-N-(p-carboxyphenyl)-1,8-naphthalimide] | = 66 % of Max
31 | O=C(O)c1ccccc1N1C(=O)c2cccc([N+](=O)[O-])c2C1=O [Compound 127, 3-nitro-N-(o-carboxyphenyl)phthalimide] | = 118 % of Max
32 | O=C(O)CN1C(=O)c2cccc([N+](=O)[O-])c2C1=O [Compound 120, 3-nitro-N-(1-carboxymethyl)phthalimide] | = 109 % of Max
33 | O=C(O)c1ccccc1N1C(=O)c2cccc3cc([N+](=O)[O-])cc(c23)C1=O [Compound 207, 3-nitro-N-(o-carboxyphenyl)-1,8-naphthalimide] | = 54 % of Max

The compounds below were run on T2, TrkA and p75^NTR (PC12 cells) in the same assay as above. Settings: compound 50 μM; 125I-NGF 1 nM; 2 h at 4° C.; receptor binding as percentage of binding in absence of competitor.
T2 construct: PC12 cells (rat pheochromocytoma cells expressing TrkA and p75^NTR; obtained from ATCC); host or cells: PC12 rat pheochromocytoma cells (intact, in suspension)
T2 sequence (P01139 122-241): as above
Set-up: species or system rat
Experimental: as §1

Row | SMILES | PC12 % of Max (individual determinations)
34 | O=C(O)c1ccc(CN2C(=O)c3ccc(C(=O)O)cc3C2=O)cc1 [Compound 108, 4-carboxy-N-(p-carboxyphenylmethyl)phthalimide] | 90 % of Max and 55 % of Max and 75 % of Max
35 | O=C(O)CCCCCN1C(=O)c2ccc(C(=O)O)cc2C1=O [Compound 104, 4-carboxy-N-(5-carboxypentyl)phthalimide] | 51 % of Max and 50 % of Max and 66 % of Max
36 | O=C(O)c1ccc(CN2C(=O)c3cccc4cc([N+](=O)[O-])cc(c34)C2=O)cc1 [Compound 208, 3-nitro-N-(p-carboxyphenylmethyl)-1,8-naphthalimide] | 56 % of Max and 45 % of Max and 47 % of Max
37 | Nc1ccc2c(c1)C(=O)N(c1cccc(C(=O)O)c1)C2=O [Compound 166, 4-amino-N-(m-carboxyphenyl)phthalimide] | 43 % of Max and 58 % of Max and 71 % of Max
38 | O=C(O)CCCN1C(=O)c2ccc([N+](=O)[O-])cc2C1=O [Compound 142, 4-nitro-N-(3-carboxypropyl)phthalimide] | 55 % of Max and 77 % of Max and 67 % of Max
39 | O=C(O)CCN1C(=O)c2ccc([N+](=O)[O-])cc2C1=O [Compound 141, 4-nitro-N-(2-carboxyethyl)phthalimide] | 74 % of Max and 108 % of Max and 87 % of Max
40 | O=C(O)c1ccc(N2C(=O)c3cccc([N+](=O)[O-])c3C2=O)cc1 [Compound 125, 3-nitro-N-(p-carboxyphenyl)phthalimide] | 83 % of Max and 87 % of Max and 99 % of Max
41 | O=C(O)c1ccc(N2C(=O)c3cccc4c([N+](=O)[O-])ccc(c34)C2=O)cc1 [Compound 225, 4-nitro-N-(p-carboxyphenyl)-1,8-naphthalimide] | 69 % of Max and 60 % of Max and 68 % of Max
42 | O=C(O)c1ccccc1N1C(=O)c2cccc([N+](=O)[O-])c2C1=O [Compound 127, 3-nitro-N-(o-carboxyphenyl)phthalimide] | 140 % of Max and 101 % of Max and 114 % of Max
43 | O=C(O)CN1C(=O)c2cccc([N+](=O)[O-])c2C1=O [Compound 120, 3-nitro-N-(1-carboxymethyl)phthalimide] | 133 % of Max and 92 % of Max and 103 % of Max
44 | O=C(O)c1ccccc1N1C(=O)c2cccc3cc([N+](=O)[O-])cc(c23)C1=O [Compound 207, 3-nitro-N-(o-carboxyphenyl)-1,8-naphthalimide] | 60 % of Max and 34 % of Max and 69 % of Max
